Reference: US5102877A, “1-azabicyclo[3.2.0]hept-2-ene-2-carboxylic acid compounds” (Fujisawa Pharmaceutical Co., Ltd., priority 1989, dated 1992)

Test system: S. aureus 6
Test: in vitro Antimicrobial Activity, two-fold agar-plate dilution method
Assay type: cell-based
Details: Staphylococcus aureus, heart infusion agar, 10^6 viable cells per ml, 37° C. for 20 hours, read-out: minimal inhibitory concentration (MIC)
Method: in vitro Antimicrobial Activity was determined by the two-fold agar-plate dilution method as described below.
One loopful of an overnight culture of a test strain in Trypticase-soy broth (10^6 viable cells per ml) was streaked on heart infusion agar (HI-agar) containing graded concentrations of the test compound, and the minimal inhibitory concentration (MIC) was expressed in terms of μg/ml after incubation at 37° C. for 20 hours.

- MIC: ≤ 0.025 µg/mL
Compound: C[C@@H](O)[C@H]1C(=O)N2C(C(=O)O)=C(C3CCN(C=N)C3)C[C@H]12 (stereo partly drawn) [Example 12, (5R,6S)-3-(1-formimidoylpyrrolidin-3-yl)-6-[(1R)-1-hydroxyethyl]-7-oxo-1-azabicyclo[3.2.0]hept-2-ene-2-carboxylic acid]
